# Assay results published in article PMC10143822, “Structural Adaptation of the Single-Stranded DNA-Binding Protein C-Terminal to DNA Metabolizing Partners Guides Inhibitor Design” (Pharmaceutics, 2023).
# Primed or numbered codes have the meaning given here. Where no end group is shown, it is not given here. [ ]: non-standard residue; d: D form. 5,6‑carboxyfluorescein = 5,6-carboxyfluorescein; Phe(4-CF3) = N[C@@H](Cc1ccc(C(F)(F)F)cc1)C(=O)O; Phe(3-Cl) = N[C@@H](Cc1cccc(Cl)c1)C(=O)O; Phe(4-Cl) = N[C@@H](Cc1ccc(Cl)cc1)C(=O)O; NMeD = CN[C@@H](CC(=O)O)C(=O)O; Pip′ = not defined here
# T1: E. coli Exonuclease I (E. coli, UniProt P04995 1-471)
# T1 construct: Exonuclease I of E. coli, from plasmid pET14b-E. coli Exonuclease I (Addgene 104552); The His tag was cut off with thrombin only for the purified protein; also called ExoI; Exol; source: E. coli BL21 (DE3) pLysS, purified (Ni-NTA, heparin); also in cell lysate (pull-down)
# T1 sequence: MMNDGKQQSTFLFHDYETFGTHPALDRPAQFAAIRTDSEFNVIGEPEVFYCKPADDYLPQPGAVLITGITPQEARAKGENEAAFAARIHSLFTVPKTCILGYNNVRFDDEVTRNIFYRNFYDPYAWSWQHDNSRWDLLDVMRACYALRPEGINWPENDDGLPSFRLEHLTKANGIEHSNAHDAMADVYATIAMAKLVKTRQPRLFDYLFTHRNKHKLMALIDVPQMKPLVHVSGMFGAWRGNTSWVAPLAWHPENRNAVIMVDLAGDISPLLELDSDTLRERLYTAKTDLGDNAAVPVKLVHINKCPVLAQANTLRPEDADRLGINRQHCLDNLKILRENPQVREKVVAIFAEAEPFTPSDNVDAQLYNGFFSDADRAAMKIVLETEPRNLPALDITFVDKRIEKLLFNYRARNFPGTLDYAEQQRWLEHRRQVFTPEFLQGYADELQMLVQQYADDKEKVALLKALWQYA
# T2: Escherichia coli RecO (Escherichia coli, UniProt P0A7H3 1-242)
# T2 construct: RecO of Escherichia coli, synthetic gene in pET28a+ with a TEV site at the 5' end; The His tag was cut off with TEV protease only for the purified protein; source: E. coli Rosetta, purified (Ni-NTA, heparin); also in cell lysate (pull-down); not shown: His tag, N-terminal, cleaved
# T2 sequence: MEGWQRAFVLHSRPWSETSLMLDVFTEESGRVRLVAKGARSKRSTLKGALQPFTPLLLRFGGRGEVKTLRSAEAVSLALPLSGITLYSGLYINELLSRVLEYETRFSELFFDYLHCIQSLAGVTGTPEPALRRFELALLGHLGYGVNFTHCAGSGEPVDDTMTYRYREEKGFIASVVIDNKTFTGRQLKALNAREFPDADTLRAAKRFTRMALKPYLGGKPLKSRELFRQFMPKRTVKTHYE
# B1: F-Leu6 (fluorescein-labelled single mutant) (peptide)
# peptide: {5,6‑carboxyfluorescein}-GGDFDDDLPF
# notes: two glycines between the 5,6-carboxyfluorescein and the peptide; E. coli SSB-Ct, residues 171-178; numbers count on: the octapeptide (position 1 = SSB residue 171); One of Compounds 54-62 of the Supplementary Material; also called F-mSSB Leu6; source: synthetic peptide
# B2: F-4Cl-Phe2 (fluorescein-labelled single mutant) (peptide)
# peptide: {5,6‑carboxyfluorescein}-GGD[Phe(4-Cl)]DDDIPF
# notes: two glycines between the 5,6-carboxyfluorescein and the peptide; E. coli SSB-Ct, residues 171-178; F at position 2 stands for 4-Cl-Phe; numbers count on: the octapeptide (position 1 = SSB residue 171); One of Compounds 54-62 of the Supplementary Material; also called F-mSSB 4Cl-Phe2; source: synthetic peptide
# B3: F-4CF3-Phe2 (fluorescein-labelled single mutant) (peptide)
# peptide: {5,6‑carboxyfluorescein}-GGD[Phe(4-CF3)]DDDIPF
# notes: two glycines between the 5,6-carboxyfluorescein and the peptide; E. coli SSB-Ct, residues 171-178; F at position 2 stands for 4-CF3-Phe; numbers count on: the octapeptide (position 1 = SSB residue 171); One of Compounds 54-62 of the Supplementary Material; also called F-mSSB 4CF3-Phe2; source: synthetic peptide
# B4: F-4CF3-Phe8 (fluorescein-labelled single mutant) (peptide)
# peptide: {5,6‑carboxyfluorescein}-GGDFDDDIP[Phe(4-CF3)]
# notes: two glycines between the 5,6-carboxyfluorescein and the peptide; E. coli SSB-Ct, residues 171-178; F at position 8 stands for 4-CF3-Phe; numbers count on: the octapeptide (position 1 = SSB residue 171); One of Compounds 54-62 of the Supplementary Material; also called F-mSSB 4CF3-Phe8; source: synthetic peptide
# B5: R1-sSSB-Ct (Asp–4Cl-Phe–NM-Asp–Asp–Glu–Leu–Pro–3Cl-Phe) (peptide)
# peptide: Ac-D[Phe(4-Cl)][NMeD]DELP[Phe(3-Cl)]
# notes: SSB-Ct of E. coli SSB (residues 171-178) with combined modifications, printed in three-letter code; F2 stands for 4Cl-Phe, D3 for NM-Asp, F8 for 3Cl-Phe; numbers count on: the octapeptide (position 1 = SSB residue 171); source: synthetic peptide
# B6: E2-sSSB-Ct (Asp–4-CF3-Phe–Asp–Asp–Asp–Ile–Pro–4-CF3-Phe) (peptide)
# peptide: Ac-D[Phe(4-CF3)]DDDIP[Phe(4-CF3)]
# notes: SSB-Ct of E. coli SSB (residues 171-178), printed in three-letter code; F2 and F8 stand for 4-CF3-Phe; numbers count on: the octapeptide (position 1 = SSB residue 171); also called E2.SSB-Ct; source: synthetic peptide
# Assays:
# [1] = molecular target: T3, ExoI (Escherichia coli, UniProt P04995); test: biochemical; format: binding, E. coli
# T3 construct: His-tag (cleaved yes); host or cells: E. coli BL21 (DE3) pLysS
# Procedure: (§1) Triplicate measurements were performed using a Clariostar Plus Microplate Reader in 384-well plates for all fluorescence anisotropy (FA) experiments. The settings were 25 °C, excitation at 485 nm, emission at 510 nm, settling time of 0.2 s, and 200 flashes per well.
# (§2) Competition fluorescence anisotropy experiments were carried out as follows: protein (0.5 μM either ExoI or RecO) was incubated with 50 nM F-wtSSB peptide and 0–500 μM unlabeled wtSSB (or a variant) peptide for 30 min at room temperature. For direct fluorescence anisotropy measurements, 16 µM ExoI and 7.5 µM RecO were used in the first well. After serial dilution, either 50 nM of F-mSSB or F-sSSB was added to the wells and then incubated for 30 min. Buffers used included 20 mM Tris-HCl (pH 8.0), 100 mM NaCl, 1 mM MgCl2, 1 mM 2-mercaptoethanol, 10% (v/v) glycerol, for ExoI and 20 mM Tris-HCl (pH 8.0), 200 mM NaCl, 1 mM 2-mercaptoethanol, 10% (v/v) glycerol, and 0.01% Triton-X 100 for RecO [37].
# (§3) Fluorescence anisotropy values were normalized and are shown as bound fractions (BF, %). BF=r−rmin/λ(rmax−r)+r−rmin, I=2∗PG+S, r=S−PG/I, where r: anisotropy, I: total intensity, P: perpendicular intensity, S: parallel intensity, G: an instrument factor set to 1, BF: ligand fraction bound, and λ=λbound/λunbound=1 .
# (§4) Competitive fluorescence anisotropy was analyzed in Origin Pro 9.5, and IC50 values were determined using the Logistic Nonlinear fit function and are shown as plots for each mutated position for each protein in Figures S4 and S6. EC50 values from direct fluorescence anisotropy titrations were plotted in Origin 9.5. Values were determined using the Logistics Nonlinear fit function.
# [2] = molecular target: T4, RecO (Escherichia coli, UniProt P0A7H3); test: biochemical; format: binding; settings: 0.5 μM RecO, 50 nM F-wtSSB tracer, 0–500 μM unlabeled peptide, 30 min room temperature; 20 mM Tris-HCl pH 8.0, 200 mM NaCl, 10% glycerol, 0.01% Triton-X 100; 25 °C; triplicate; read-out: IC50 on RecO, competitive fluorescence anisotropy
# T4 construct: His-tag (TEV site) (N, cleaved yes); made in house; host or cells: E. coli Rosetta cells
# Procedure: as §1, §2, §3, §4
# [3] = molecular target: T1, E. coli Exonuclease I; test: fluorescence polarisation; direct fluorescence anisotropy: ExoI serially diluted from 16 µM, 50 nM fluorescein-labelled peptide, 30 min, 25 °C; 20 mM Tris-HCl pH 8.0, 100 mM NaCl, 1 mM MgCl2, 1 mM 2-mercaptoethanol, 10% glycerol; settings: both partners purified
# [4] = molecular target: T2, Escherichia coli RecO; test: ITC; peptide in the syringe titrated into RecO in the cell; 50 mM HEPES pH 7.5, 50 mM NaCl, 25% glycerol, 1 mM TCEP; model A + B = C, stoichiometry fixed to 1:1, incompetent fraction fitted; settings: both partners purified
# [5] = molecular target: T1, E. coli Exonuclease I; test: ITC; peptide in the syringe titrated into ExoI in the cell; 20 mM Tris–HCl pH 8.0, 100 mM NaCl, 1 mM MgCl2, 4% glycerol, 1 mM β-mercaptoethanol; model A + B = C, stoichiometry fixed to 1:1, incompetent fraction fitted; settings: both partners purified
# T3 sequence (P04995 whole entry): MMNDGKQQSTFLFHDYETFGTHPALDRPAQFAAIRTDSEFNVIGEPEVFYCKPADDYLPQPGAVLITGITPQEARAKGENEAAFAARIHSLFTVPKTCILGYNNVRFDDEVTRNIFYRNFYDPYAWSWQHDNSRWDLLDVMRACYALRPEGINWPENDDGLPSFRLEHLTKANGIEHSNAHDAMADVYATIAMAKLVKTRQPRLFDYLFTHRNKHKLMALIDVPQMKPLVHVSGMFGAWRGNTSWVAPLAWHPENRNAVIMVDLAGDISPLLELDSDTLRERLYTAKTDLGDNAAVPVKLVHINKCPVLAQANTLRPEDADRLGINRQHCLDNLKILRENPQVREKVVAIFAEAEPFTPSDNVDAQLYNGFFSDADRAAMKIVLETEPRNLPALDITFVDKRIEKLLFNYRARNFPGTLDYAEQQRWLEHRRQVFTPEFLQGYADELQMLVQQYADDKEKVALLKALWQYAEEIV
molecule,measurement,setting,value
Ac-DFDEDIPF [Glu4],IC50,[1],3.58 ± 0.11 µM
same,IC50,[2],5.68 ± 0.59 µM
Ac-DFDNDIPF [Asn4],IC50,[1],6.02 ± 0.3 µM
same,IC50,[2],15.7 ± 3.54 µM
Ac-DFEDDIPF [Glu3],IC50,[1],4.03 ± 0.24 µM
same,IC50,[2],5.81 ± 1.65 µM
Ac-DFNDDIPF [Asn3],IC50,[1],6.36 ± 0.36 µM
same,IC50,[2],14.2 ± 1.8 µM
Ac-EFDDDIPF [Glu1],IC50,[1],1.33 ± 0.09 µM
same,IC50,[2],5.17 ± 1.1 µM
Ac-NFDDDIPF [Asn1],IC50,[1],9.31 ± 0.4 µM
same,IC50,[2],13.8 ± 17.2 µM
B1,EC50,[3],0.2 ± 0.03 µM
B2,EC50,[3],0.15 ± 0.02 µM
B3,EC50,[3],0.04 ± 0.002 µM
"{5,6‑carboxyfluorescein}-DFDDDI[Pip′]F (not fully specified) [F-Pip7 (fluorescein-labelled single mutant)]",EC50,[3],0.09 ± 0.01 µM
B4,EC50,[3],0.09 ± 0.01 µM
B5,Kd,[4],0.13 µM
same,dH,[4],-6.79 kcal/mol
same,stoichiometry N,[4],0.935
B6,dH,[5],-13.4 kcal/mol
same,stoichiometry N,[5],0.885
